According to patent publication US8835428B2, “Diacylglycerol acyltransferase inhibitors” (Piramal Enterprises Limited, priority 2008, dated 2014):

Biological target: T1, hDGAT1 (Homo sapiens, UniProt O75907)
T1 construct: host or cells: Sf9 insect cells (baculovirus); microsomal preparation
T1 sequence (O75907 1-488): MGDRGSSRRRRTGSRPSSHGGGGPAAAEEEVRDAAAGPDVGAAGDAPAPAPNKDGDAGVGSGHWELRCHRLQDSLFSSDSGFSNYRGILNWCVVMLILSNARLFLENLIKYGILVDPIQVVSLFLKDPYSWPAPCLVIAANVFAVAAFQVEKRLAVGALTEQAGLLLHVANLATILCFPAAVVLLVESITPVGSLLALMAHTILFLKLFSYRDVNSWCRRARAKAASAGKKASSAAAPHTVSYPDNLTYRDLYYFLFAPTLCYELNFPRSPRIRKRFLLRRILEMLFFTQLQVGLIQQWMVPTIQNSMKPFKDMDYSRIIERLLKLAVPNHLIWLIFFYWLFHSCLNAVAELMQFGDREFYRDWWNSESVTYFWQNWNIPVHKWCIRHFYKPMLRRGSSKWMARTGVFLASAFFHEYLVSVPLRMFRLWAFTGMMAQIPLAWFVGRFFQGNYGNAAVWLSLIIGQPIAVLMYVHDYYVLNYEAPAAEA
Test: In-vitro DGAT1 assay (hDGAT1 microsomes from Sf9 cells, 14C oleoyl CoA, triglyceride formation)
Assay type: biochemical
Conditions: At 1 μM
Outline: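 Human DGAT1 in baculovirus-infected Sf9 microsomes (2.5–10 μg), [14C]oleoyl-CoA with 409.5, 1228.5 or 1638 μM 1,2-dioleoyl-sn-glycerol, Tris-HCl pH 7.4 buffer with BSA. Compounds screened at 10, 5 and 1 μM in duplicate. Reaction 10 min at 37 °C; heptane-extracted [14C]triglyceride counted by scintillation.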

SMILES | inhibition at 1 µM [%]
Cc1ccc(F)c(NC(=O)Nc2ccc(-c3cc(C(=O)NC(C(=O)O)C(C)C)on3)cc2)c1 (stereo not drawn) [Example 156, 2-(3-(4-(3-(2-fluoro-5-methylphenyl)ureido)phenyl)isoxazole-5-carboxamido)-3-methylbutanoic acid] | 75 to 100
CC(C)[C@@H](N/C(=N/O)c1cc(-c2ccc(NC(=O)Nc3ccccc3F)cc2)no1)C(=O)O [Example 226, (R,E)-2-(3-(4-(3-(2-Fluorophenyl)ureido)phenyl)-N′-hydroxyisoxazole-5-carboximidamido)-3-methylbutanoic acid] | 0 to 50
CC(C)[C@H](NC(=O)c1cc(-c2ccc(NC(=O)Nc3cccc(Cl)c3F)cc2)no1)C(=O)O [Example 183, (S)-2-(3-(4-(3-(3-chloro-2-fluorophenyl)ureido)phenyl)isoxazole-5-carboxamido)-3-methylbutanoic acid] | 75 to 100
COC(=O)[C@H](NC(=O)c1cc(-c2ccc(NC(=O)Nc3ccccc3C#N)cc2)no1)C(C)C [Example 216, (R)-methyl 2-(3-(4-(3-(2-cyanophenyl)ureido)phenyl)isoxazole-5-carboxamido)-3-methylbutanoate] | 0 to 50
CC(C)[C@H](NC(=O)c1cc(-c2ccc(NC(=O)Nc3ccc(Cl)cc3Oc3ccccc3)cc2)no1)C(=O)O [Example 201, (S)-2-(3-(4-(3-(4-Chloro-2-phenoxyphenyl)ureido)phenyl)isoxazole-5-carboxamido)-3-methylbutanoic acid] | 75 to 100
CC(C)[C@H](NC(=O)c1cc(-c2ccc(NC(=O)Nc3cc(C(F)(F)F)ccc3Cl)cc2)no1)C(=O)O [Example 211, (S)-2-(3-(4-(3-(2-chloro-5-(trifluoromethyl)phenyl)ureido)phenyl)isoxazole-5-carboxamido)-3-methylbutanoic acid] | 75 to 100

Other lines, results leading:

inhibition at 1 µM [%] | SMILES
0 to 50 | CC(C)[C@@H](NC(=O)c1cc(-c2ccc(NS(=O)(=O)c3c(F)cccc3F)cc2)no1)C(=O)O [Example 317, (R)-2-(3-(4-(2,6-Difluorophenylsulfonamido)phenyl)isoxazole-5-carboxamido)-3-methylbutanoic acid]
75 to 100 | CC(C)[C@H](NC(=O)c1cc(-c2ccc(NC(=O)Nc3ccc(OC(F)(F)F)cc3)cc2)no1)C(=O)O [Example 187, (S)-3-methyl-2-(3-(4-(3-(4-(trifluoromethoxy)phenyl)ureido)phenyl)isoxazole-5-carboxamido)butanoic acid]
75 to 100 | CC(C)[C@H](NC(=O)c1cc(-c2ccc(NC(=O)Nc3cc(F)cc(F)c3)cc2)no1)C(=O)O [Example 167, (S)-2-(3-(4-(3-(3,5-difluorophenyl)ureido)phenyl)isoxazole-5-carboxamido)-3-methylbutanoic acid]
0 to 50 | CCS/C(=N\[C@@H](C(=O)OC)C(C)C)c1cc(-c2ccc(NC(=O)Nc3ccc(C)cc3)cc2)no1 [Example 225, (R,Z)-Methyl 2-(ethylthio(3-(4-(3-p-tolylureido)phenyl)isoxazol-5-yl)methyleneamino)-3-methylbutanoate]
75 to 100 | CC(C)C(NC(=O)c1cc(-c2ccc(NC(=O)Nc3ccc(C4CCCCC4)cc3)cc2)no1)C(=O)O (stereo not drawn) [Example 293, 2-(3-(4-(3-(4-cyclohexylphenyl)ureido)phenyl)isoxazole-5-carboxamido)-3-methylbutanoic acid]

Same assay, conditions: At 5 μM

SMILES | inhibition at 5 µM [%]
O=C(O)CCCNC(=O)c1cc(-c2ccc(NC(=O)Nc3ccccc3F)cc2)no1 [Example 254, 4-(3-(4-(3-(2-Fluorophenyl)ureido)phenyl)isoxazole-5-carboxamido) butanoic acid] | 50 to 75
COC(=O)C(NC(=O)c1cc(-c2ccc(NC(=O)Nc3ccc(C(F)(F)F)cc3)cc2)no1)C(C)C (stereo not drawn) [Example 275, Methyl 3-methyl-2-(3-(4-(3-(4-(trifluoromethyl)phenyl)ureido)phenyl)isoxazole-5-carboxamido)butanoate] | 0 to 50
COC(=O)[C@@H](NC(=O)c1cc(-c2ccc(NC(=S)Nc3ccccc3F)cc2)no1)C(C)C [Example 269, (S)-methyl 2-(3-(4-(3-(2-fluorophenyl)thioureido)phenyl)isoxazole-5-carboxamido)-3-methylbutanoate] | 0 to 50
CC(C)[C@H](NC(=O)c1cc(-c2ccc(NC(=S)Nc3cccc(F)c3)cc2)no1)C(=O)O [Example 268, (S)-2-(3-(4-(3-(3-fluorophenyl)thioureido)phenyl)isoxazole-5-carboxamido)-3-methylbutanoic acid] | 50 to 75

Further lines, results first:

inhibition at 5 µM [%] | SMILES
50 to 75 | O=C(Nc1ccc(-c2cc(C(=O)N[C@@H](CO)C(=O)O)on2)cc1)Nc1ccccc1F [Example 299, (S)-2-(3-(4-(3-(2-Fluorophenyl)ureido)phenyl)isoxazole-5-carboxamido)-3-hydroxypropanoic acid]
0 to 50 | COC(=O)[C@@H](NC(=O)c1nc(-c2ccc(NC(=O)Nc3ccccc3)cc2)no1)C(C)C [Example 351, (S)-Methyl 3-methyl-2-(3-(4-(3-phenylureido)phenyl)-1,2,4-oxadiazole-5-carboxamido)butanoate]
0 to 50 | COC(=O)[C@@H](NC(=O)c1nc(-c2ccc(NC(=O)Nc3ccccc3F)cc2)no1)C(C)C [Example 348, (S)-methyl 2-(3-(4-(3-(2-fluorophenyl)ureido)phenyl)-1,2,4-oxadiazole-5-carboxamido)-3-methylbutanoate]
0 to 50 | CC(C)C(NC(=O)c1cc(-c2ccc(NC(=O)Nc3ccc(-c4cc(C(=O)NC(C(=O)O)C(C)C)on4)cc3)cc2)no1)C(=O)O (stereo not drawn) [Example 282, 2-({3-[4-(3-{4-[5-(1-Carboxy-2-methyl-propylcarbamoyl)-isoxazol-3-yl]-phenyl}-ureido)-phenyl]-isoxazol-5-carbonyl}-amino)-3-methyl-butyric acid]

Same assay, conditions: At 10 μM

SMILES | inhibition at 10 µM [%]
COC(=O)[C@@H](NC(=NO)c1cc(-c2cccc(Nc3nc4ccc(F)cc4s3)c2)no1)C(C)C [Example 26, (S)-2-({3-[3-(6-Fluoro-benzothiazol-2-ylamino)-phenyl]-N-hydroxy-isoxazole-5-carboximidoyl}-amino)-3-methyl-butyric acid methyl ester] | 0 to 50
COC[C@H](NC(=S)c1cc(-c2ccc(Nc3nc4ccc(F)cc4s3)cc2)no1)C(=O)OC [Example 14, (S)-2-({3-[4-(6-Fluoro-benzothiazol-2-ylamino)-phenyl]-isoxazole-5-carbothioyl}-amino)-3-methoxy-propionic acid methyl ester] | 0 to 50
COC(=O)C(NC(=O)c1cc(-c2ccc(NC(=O)NCc3ccccc3)cc2)no1)C(C)C (stereo not drawn) [Example 107, Methyl 2-(3-(4-(3-benzylureido)phenyl)isoxazole-5-carboxamido)-3-methylbutanoate] | 0 to 50
CC(C)[C@H](NC(=O)c1cc(-c2cccc(Nc3nc4ccc(F)cc4s3)c2)no1)C(=O)O [Example 23, (S)-2-({3-[3-(6-Fluoro-benzothiazol-2-ylamino)-phenyl]-isoxazole-5-carbonyl}-amino)-3-methyl-butyric acid] | 0 to 50
COC[C@H](NC(=S)c1cc(-c2cccc(Nc3nc4ccc(F)cc4s3)c2)no1)C(=O)O [Example 31, (S)-2-({3-[3-(6-Fluoro-benzothiazol-2-ylamino)-phenyl]-isoxazole-5-carbothioyl}-amino)-3-methoxy-propionic acid] | 0 to 50

The next lines start with the values.

inhibition at 10 µM [%] | SMILES
0 to 50 | O=C(O)[C@@H]1CCCN1C(=S)c1cc(-c2cccc(Nc3nc4ccc(F)cc4s3)c2)no1 [Example 37, (S)-1-{3-[3-(6-Fluoro-benzothiazol-2-ylamino)-phenyl]-isoxazole-5-carbothioyl}-pyrrolidine-2-carboxylic acid]
75 to 100 | CC(C)(NC(=O)c1cc(-c2ccc(NC(=O)Nc3ccccc3)cc2)no1)C(=O)O [Example 122, 2-methyl-2-(3-(4-(3-phenylureido)phenyl)isoxazole-5-carboxamido) propanoic acid]
50 to 75 | COC(=O)C(NC(=O)c1cc(-c2ccc(NC(=O)Nc3ccc(C)cc3)cc2)no1)C(C)C (stereo not drawn) [Example 125, Methyl 3-methyl-2-(3-(4-(3-p-tolylureido)phenyl)isoxazole-5-carboxamido)butanoate]
50 to 75 | COC[C@H](NC(=S)c1cc(-c2ccc(Nc3nc4ccc(F)cc4s3)cc2)no1)C(=O)O [Example 15, (S)-2-({3-[4-(6-Fluoro-benzothiazol-2-ylamino)-phenyl]-isoxazole-5-carbothioyl}-amino)-3-methoxy-propionic acid]
75 to 100 | COC[C@H](NC(=O)c1cc(-c2ccc(Nc3nc4ccc(F)cc4s3)cc2)no1)C(=O)O [Example 13, (S)-2-({3-[4-(6-Fluoro-benzothiazol-2-ylamino)-phenyl]-isoxazole-5-carbonyl}-amino)-3-methoxy-propionic acid]
50 to 75 | COC(=O)[C@@H](NC(=O)c1cc(-c2ccc(Nc3nc4ccc(F)cc4s3)cc2)no1)C(C)C [Example 5, (S)-2-({3-[4-(6-Fluoro-benzothiazol-2-ylamino)-phenyl]-isoxazole-5-carbonyl}-amino)-3-methyl-butyric acid methyl ester]
